Measurements published in ChEMBL document CHEMBL1141008, “Identification of small molecule agonists of the motilin receptor” (Bioorg Med Chem Lett, 2008).
Each block holds one molecule with its values, some of them ahead of it.

Key:
Stomach [1] = test: Increase in electric field stimulated contractile response in New Zealand White rabbit gastric antrum at 3 uM pre-incubated for 15 mins; assay type: functional, Oryctolagus cuniculus
[2] = Half life in New Zealand White rabbit gastric antrum at 3 uM; assay type: ADME, tissue-based, Oryctolagus cuniculus, Stomach
Motilin receptor [3] = biological target: T1, Motilin receptor (Homo sapiens, UniProt O43193); test: Agonist activity at human recombinant motilin receptor expressed in HEK293 cells by calcium mobilization-based FLIPR assay; assay type: functional, cell-based
T1 sequence (O43193 whole entry): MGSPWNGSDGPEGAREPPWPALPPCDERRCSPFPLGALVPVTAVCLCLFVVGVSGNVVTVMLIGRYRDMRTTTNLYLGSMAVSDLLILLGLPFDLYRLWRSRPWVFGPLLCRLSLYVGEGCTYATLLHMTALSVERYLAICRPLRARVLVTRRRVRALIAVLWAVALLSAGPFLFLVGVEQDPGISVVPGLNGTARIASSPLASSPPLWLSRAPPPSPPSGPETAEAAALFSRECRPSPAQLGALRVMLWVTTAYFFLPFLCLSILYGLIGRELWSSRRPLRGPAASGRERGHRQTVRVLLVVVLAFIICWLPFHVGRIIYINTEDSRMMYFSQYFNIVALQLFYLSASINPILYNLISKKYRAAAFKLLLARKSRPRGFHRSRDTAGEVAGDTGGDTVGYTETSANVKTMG

Motilin receptor [4] = biological target: T1, Motilin receptor; test: Intrinsic activity at human recombinant motilin receptor expressed in CHO cells by calcium mobilization-based FLIPR assay relative to motilin; assay type: functional, cell-based
Motilin receptor [5] = biological target: T1, Motilin receptor; test: Agonist activity at human recombinant motilin receptor expressed in CHO cells by calcium mobilization-based FLIPR assay; assay type: functional, cell-based
Stomach [6] = test: Increase in electric field stimulated contractile response in New Zealand White rabbit gastric antrum at 0.3 uM preincubated for 15 mins; assay type: functional, Oryctolagus cuniculus
[7] = Half life in New Zealand White rabbit gastric antrum at 0.3 uM; assay type: ADME, tissue-based, Oryctolagus cuniculus, Stomach
[8] = biological target: Growth hormone secretagogue receptor type 1 (Homo sapiens) (UniProt Q92847); test: Activity at ghrelin receptor in human recombinant cells by calcium mobilization-based FLIPR assay
Sequence of Growth hormone secretagogue receptor type 1 (Homo sapiens) (Q92847 whole entry, looked up): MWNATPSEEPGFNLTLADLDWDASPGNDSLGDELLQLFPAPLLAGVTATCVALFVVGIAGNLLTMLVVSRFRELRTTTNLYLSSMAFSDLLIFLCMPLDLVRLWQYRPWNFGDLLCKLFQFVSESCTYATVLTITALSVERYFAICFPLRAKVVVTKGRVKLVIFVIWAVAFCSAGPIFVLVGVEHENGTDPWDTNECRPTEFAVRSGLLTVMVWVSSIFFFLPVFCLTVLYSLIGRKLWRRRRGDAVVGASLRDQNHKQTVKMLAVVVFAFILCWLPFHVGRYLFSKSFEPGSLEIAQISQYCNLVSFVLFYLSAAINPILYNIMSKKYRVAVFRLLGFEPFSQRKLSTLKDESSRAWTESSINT

Stomach [9] = test: Increase in electric field stimulated contractile response in New Zealand White rabbit gastric antrum at 10 uM pre-incubated for 15 mins; assay type: functional, Oryctolagus cuniculus
[10] = Selectivity for human recombinant motilin receptor over ghrelin receptor in FLIPR assay
[11] = Half life in New Zealand White rabbit gastric antrum at 10 uM; assay type: ADME, tissue-based, Oryctolagus cuniculus, Stomach

SMILES: CC[C@H]1OC(=O)[C@H](C)[C@@H](O[C@H]2C[C@@](C)(OC)[C@@H](O)[C@H](C)O2)[C@H](C)[C@@H](O[C@@H]2O[C@H](C)C[C@H](N(C)C)[C@H]2O)[C@](C)(O)C[C@@H](C)C(=O)[C@H](C)[C@@H](O)[C@]1(C)O [ERYTHROMYCIN]
Activity (Stomach [1]): 490%
half-life at 3 µM [2]: 23 min

SMILES: COc1cccc(CCN(Cc2ccccc2-c2ccc(CN3CCNCC3)cc2)C(=O)Cc2ccccc2)c1
EC50 (Motilin receptor [3]): 1000 nM

SMILES: CC[C@H](C)[C@H](NC(=O)[C@@H]1CCCN1C(=O)[C@@H](NC(=O)[C@@H](N)Cc1ccccc1)C(C)C)C(=O)N[C@@H](Cc1ccccc1)C(=O)N[C@H](C(=O)N[C@@H](Cc1ccc(O)cc1)C(=O)NCC(=O)N[C@@H](CCC(=O)O)C(=O)N[C@@H](CC(C)C)C(=O)N[C@@H](CCC(N)=O)C(=O)N[C@@H](CCCN=C(N)N)C(=O)N[C@@H](CCSC)C(=O)N[C@@H](CCC(N)=O)C(=O)N[C@@H](CCC(=O)O)C(=O)N[C@@H](CCCCN)C(=O)N[C@@H](CCC(=O)O)C(=O)N[C@@H](CCCN=C(N)N)C(=O)N[C@@H](CC(N)=O)C(=O)N[C@@H](CCCCN)C(=O)NCC(=O)N[C@@H](CCC(N)=O)C(=O)O)[C@@H](C)O [MOTILIN]
Activity (Stomach [6]): 506%
half-life at 0.3 µM [7]: 9 min

SMILES: COc1cccc(CCN(Cc2ccccc2-c2ccc(CN3C[C@@H](C)N[C@@H](C)C3)cc2)C(=O)NC2CCCCC2)c1
EC50 [8]: 126 nM
Activity (Motilin receptor [4]): 1
Activity (Stomach [9]): 182%
fold change (FC) [10]: 10
half-life at 10 µM [11]: 39 min

SMILES: COCCCN(Cc1ccccc1-c1ccc(CN(C)CCN(C)C)cc1)C(=O)Cc1ccccc1
Activity (Motilin receptor [4]): 0.4
EC50 (Motilin receptor [5]): 3160 nM

SMILES: COCCCN(Cc1ccccc1-c1ccc(CN2CCCCC2)cc1)C(=O)Cc1ccccc1
EC50 (Motilin receptor [5]): > 12600 nM

SMILES: COCCCN(Cc1ccccc1-c1ccc(CN2CCNCC2)cc1)S(=O)(=O)c1ccc(F)cc1
EC50 (Motilin receptor [3]): 631 nM

SMILES: COc1cccc(CCNCc2ccccc2-c2ccc(CN3CCNCC3)cc2)c1
EC50 (Motilin receptor [3]): 5010 nM

SMILES: COCCCN(Cc1ccccc1-c1ccc(C(=O)N2CCNCC2)cc1)C(=O)Cc1ccccc1
EC50 (Motilin receptor [5]): > 3160 nM

SMILES: COCCCN(Cc1ccccc1-c1ccc(CN2CCOCC2)cc1)C(=O)Cc1ccccc1
EC50 (Motilin receptor [5]): > 12600 nM

SMILES: COCCCN(Cc1ccccc1-c1ccc(CN2CCN(C)CC2)cc1)C(=O)Cc1ccccc1
EC50 (Motilin receptor [5]): > 12600 nM

SMILES: COCCCN(Cc1ccccc1-c1ccc(CN2CCN(C(C)=O)CC2)cc1)C(=O)Cc1ccccc1
EC50 (Motilin receptor [5]): > 12600 nM

The next lines start with the values.

EC50 (Motilin receptor [3]): 1580 nM
SMILES: O=C(NC1CCCCC1)N(CCc1ccccc1)Cc1ccccc1-c1cccc(CN2CCNCC2)c1

Activity (Motilin receptor [4]): 0.9
EC50 (Motilin receptor [5]): 50.1 nM
EC50 (Motilin receptor [3]): 100 nM
SMILES: COc1cccc(CCN(Cc2ccccc2-c2ccc(CN3CCNCC3)cc2)C(=O)NC2CCCCC2)c1

EC50 (Motilin receptor [3]): 501 nM
SMILES: COCCCN(Cc1ccccc1-c1ccc(CN2CCNCC2)cc1)C(=O)NC1CCCCC1

Activity (Motilin receptor [4]): 0.6
EC50 (Motilin receptor [5]): 398 nM
SMILES: COc1cccc(CCN(Cc2ccccc2-c2ccc(CC3CCNCC3)cc2)C(=O)NC2CCCCC2)c1

EC50 (Motilin receptor [3]): 631 nM
SMILES: COCCCN(Cc1ccccc1-c1ccc(CN2CCNCC2)cc1)C(C)=O

Activity (Motilin receptor [4]): 0.9
EC50 (Motilin receptor [5]): 5010 nM
SMILES: COc1cccc(CCN(Cc2ccccc2-c2ccc(N3CCNCC3)cc2)C(=O)NC2CCCCC2)c1

EC50 (Motilin receptor [5]): > 12600 nM
SMILES: COc1cccc(CCN(Cc2ccccc2-c2ccc(CCN3CCNCC3)cc2)C(=O)NC2CCCCC2)c1

Activity (Motilin receptor [4]): 0.7
EC50 (Motilin receptor [5]): 794 nM
SMILES: COCCCN(Cc1ccccc1-c1ccc(CN2CCNCC2)cc1)C(=O)Cc1ccccc1
